In patent publication US20220411414A1, “INHIBITORS FOR THE B-CATENIN/B-CELL LYMPHOMA 9 (BCL9) PROTEIN-PROTEIN INTERACTION” (H. LEE MOFFITT CANCER CENTER AND RESEARCH INSTITUTE, INC., priority 2018, published 2022):

Test system: mRNA expression of AXIN2, LEF1, cyclin D1 (Wnt target genes)
Assay: Quantitative real-time PCR of Wnt target genes in SW480 cells
Format: cell-based, human
Conditions: SW480, 24 h, FIG. 2
Description: House-keeper gene HERT was used as a reference. Each set of data is expressed as mean±standard deviation (n=3).
Axin2, cyclin D1, c-myc, and LEF1 are the target genes of the canonical Wnt signaling pathway. Axin 2 is a specific target gene for the canonical Wnt signaling pathway (a. Yan D, et al., Elevated expression of axin2 and hnkd mRNA provides evidence that Wnt/beta-catenin signaling is activated in human colon tumors. Proc Natl Acad Sci USA. 2001 Dec. 18; 98(26):14973-8; b. Jho E H, et al., Wnt/beta-catenin/Tcf signaling induces the transcription of Axin2, a negative regulator of the signaling pathway. Mol Cell Biol. 2002 February; 22(4):1172-83; c. Leung J Y, et al., Activation of AXIN2 expression by beta-catenin-T cell factor. A feedback repressor pathway regulating Wnt signaling. J Biol Chem. 2002 Jun. 14; 277(24):21657-65; d. Lustig B, et al., Negative feedback loop of Wnt signaling through upregulation of conductin/axin2 in colorectal and liver tumors. Mol Cell Biol. 2002 February; 22(4):1184-93). Cyclin D1 (a. Tetsu O, et al., Nature. 1999 Apr. 1; 398(6726):422-6; b. Sansom O J, et al., Cyclin D1 is not an immediate target of beta-catenin following Apc loss in the intestine. J Biol Chem. 2005 Aug. 5; 280(31):28463-7; c. Shtutman M, et al., The cyclin D1 gene is a target of the beta-catenin/LEF-1 pathway. Proc Natl Acad Sci USA. 1999 May 11; 96(10):5522-7; d. Lin S Y, et al., Beta-catenin, a novel prognostic marker for breast cancer: its roles in cyclin D1 expression and cancer progression. Proc Natl Acad Sci USA. 2000 Apr. 11; 97(8):4262-6), c-myc (a. He T C, et al., Identification of c-MYC as a target of the APC pathway. Science. 1998 September 4; 281(5382):1509-12; b. Sansom O J, et al., Myc deletion rescues Ape deficiency in the small intestine. Nature. 2007 Apr. 5; 446(7136):676-9), and LEF1 (Hovanes K, et al., Beta-catenin-sensitive isoforms of lymphoid enhancer factor-1 are selectively expressed in colon cancer. Nat Genet. 2001 May; 28(1):53-7.; Filali M, et al., Wnt-3A/beta-catenin signaling induces transcription from the LEF-1 promoter. J Biol Chem. 2002 Sep. 6; 277(36):33398-410; Li T W, et al., Wnt activation and alternative promoter repression of LEF1 in colon cancer. Mol Cell Biol. 2006 July; 26(14):5284-99; Nguyen D X, et al., WNT/TCF signaling through LEF1 and HOXB9 mediates lung adenocarcinoma metastasis. Cell. 2009 Jul. […] Quantitative real-time PCR studies were also conducted to evaluate the inhibitory effects of 4 on the mRNA levels of Wnt target genes.
Quantitative real time PCR analysis. SW480 cells at 1×10^6/mL were treated with different concentrations of 4 for 24 h. […] Quantitative PCR (qPCR) was performed using the iQ™ SYBR green supernix kit (170-8880, BIO-RAD) on an iQ^5 multicolor real-time PCR reaction system (BIO-RAD). […]

## Cl.Cl.O=C(Nc1ccc(O[C@@H]2CCNC2)c(-c2cccc(-c3nn[nH]n3)c2)c1)c1ccc(O[C@H]2CCNC2)c(-c2ccc(F)c(F)c2)c1 [Compound 4, 3′,4′-difluoro-6-(((S)-pyrrolidin-3-yl)oxy)-N-(6-(((R)-pyrrolidin-3-yl)oxy)-3′-(2H-tetrazol-5-yl)-[1,1′-biphenyl]-3-yl)-[1,1′-biphenyl]-3-carboxamide dihydrochloride]
  mRNA of house-keeper gene HERT: did not inhibit
  transcription of Axin2: dose-dependently inhibit
  transcription of LEF1: dose-dependently inhibit
  transcription of cyclin D1: dose-dependently inhibit
